This is an account of results in patent publication US20240208992A1, “MACROCYCLES AS CFTR MODULATORS” (Idorsia Pharmaceuticals Ltd, priority 2021, published 2024).

The test addresses human F508del-CFTR (Homo sapiens, UniProt P13569, DEL508-508). The test can be described thus: F508del-CFTR cell surface expression (corrector activity), DiscoveRx ß-galactosidase complementation chemiluminescence assay in recombinant U2OS cell line.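 As to all read-outs here: U2OS cells co-expressing ProLink-tagged F508del-CFTR and a membrane-anchored enzyme acceptor, where more surface CFTR restores β-galactosidase activity measured by chemiluminescence.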 The note with it: for EC50: EC50, F508del-CFTR cell surface expression, U2OS cells, 16h compound incubation, geomean values; for Emax: U2OS, in relation to Emax of corrector lumacaftor (=100%), arithmetic mean values.

human F508del-CFTR, sequence (P13569 with tags, fused parts or gaps DEL508-508): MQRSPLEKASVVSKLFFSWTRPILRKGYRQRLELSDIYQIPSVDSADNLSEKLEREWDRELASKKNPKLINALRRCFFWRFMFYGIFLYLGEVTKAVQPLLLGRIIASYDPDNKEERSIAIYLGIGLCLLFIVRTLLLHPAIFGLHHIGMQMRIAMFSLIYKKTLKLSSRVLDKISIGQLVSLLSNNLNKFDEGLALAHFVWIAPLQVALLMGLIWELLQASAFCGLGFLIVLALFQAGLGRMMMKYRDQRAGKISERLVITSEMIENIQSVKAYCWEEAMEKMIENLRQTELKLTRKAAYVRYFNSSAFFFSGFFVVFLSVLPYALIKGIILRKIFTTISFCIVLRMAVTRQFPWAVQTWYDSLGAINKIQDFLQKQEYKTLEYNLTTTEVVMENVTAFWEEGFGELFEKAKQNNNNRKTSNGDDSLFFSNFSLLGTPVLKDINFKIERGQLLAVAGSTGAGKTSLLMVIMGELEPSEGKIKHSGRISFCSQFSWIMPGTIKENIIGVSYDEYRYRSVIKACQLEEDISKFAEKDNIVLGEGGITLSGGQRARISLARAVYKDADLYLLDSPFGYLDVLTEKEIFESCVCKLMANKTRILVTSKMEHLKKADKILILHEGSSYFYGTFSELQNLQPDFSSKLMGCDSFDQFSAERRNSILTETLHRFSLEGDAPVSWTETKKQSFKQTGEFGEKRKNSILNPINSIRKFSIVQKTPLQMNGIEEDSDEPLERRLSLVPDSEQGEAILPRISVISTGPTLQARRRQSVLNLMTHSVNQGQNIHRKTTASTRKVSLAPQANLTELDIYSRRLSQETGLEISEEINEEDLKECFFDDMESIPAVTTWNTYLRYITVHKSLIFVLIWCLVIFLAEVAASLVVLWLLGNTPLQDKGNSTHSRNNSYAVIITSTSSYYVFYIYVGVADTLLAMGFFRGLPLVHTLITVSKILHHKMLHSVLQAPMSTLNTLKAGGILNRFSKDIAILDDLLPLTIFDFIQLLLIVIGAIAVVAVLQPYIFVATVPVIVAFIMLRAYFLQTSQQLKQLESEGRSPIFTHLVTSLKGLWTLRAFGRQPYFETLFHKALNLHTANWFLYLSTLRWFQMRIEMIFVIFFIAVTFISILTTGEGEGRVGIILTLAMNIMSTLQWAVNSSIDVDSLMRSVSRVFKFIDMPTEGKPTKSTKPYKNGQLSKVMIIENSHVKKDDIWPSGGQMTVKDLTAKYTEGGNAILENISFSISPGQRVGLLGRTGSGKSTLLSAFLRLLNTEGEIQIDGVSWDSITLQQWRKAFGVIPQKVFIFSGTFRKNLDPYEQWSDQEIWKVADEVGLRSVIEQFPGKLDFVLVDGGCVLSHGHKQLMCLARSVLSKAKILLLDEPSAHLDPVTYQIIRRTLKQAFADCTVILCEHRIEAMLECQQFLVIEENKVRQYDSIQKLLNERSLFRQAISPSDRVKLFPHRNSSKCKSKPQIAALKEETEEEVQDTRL

Take `Cc1cc(CCNC(=O)[C@@H]2CC(=O)N(C)[C@@H](CC(C)C)C(=O)N3CCN(S(=O)(=O)c4ccc5c(c4)OCCN5C)C[C@@H]3C(=O)N[C@H](Cc3ccccc3)COc3cnc4ccccc4c3C(=O)N2)on1` [Example 748, (9S,13S,19aR,22R)-22-benzyl-13-isobutyl-12-methyl-18-((4-methyl-3,4-dihydro-2H-benzo[b][1,4]oxazin-7-yl)sulfonyl)-N-(2-(3-methylisoxazol-5-yl)ethyl)-7,11,14,20-tetraoxo-7,8,9,10,11,12,13,14,17,18,19,19a,20,21,22,23-hexadecahydro-16H-pyrazino[2′,11:6,7][1]oxa[4,7,10,14]tetraazacycloheptadecino[17,16-c]quinoline-9-carboxamide]: the concentration for a half-maximal effect (EC50) was found to be 529 nM and the maximal effect (Emax) turned out to be 295%.
Turning to `Cc1cc(CCNC(=O)[C@@H]2CC(=O)N(C)[C@@H](CC(C)C)C(=O)N3CCN(S(=O)(=O)c4cccc(OC(F)(F)F)c4)C[C@@H]3C(=O)N[C@H](Cc3ccccc3)COc3cnc4ccccc4c3C(=O)N2)on1` [Example 749, (9S,13S,19aR,22R)-22-benzyl-13-isobutyl-12-methyl-N-(2-(3-methylisoxazol-5-yl)ethyl)-7,11,14,20-tetraoxo-18-((3-(trifluoromethoxy)phenyl)sulfonyl)-7,8,9,10,11,12,13,14,17,18,19,19a,20,21,22,23-hexadecahydro-16H-pyrazino[2′,1′:6,7][1]oxa[4,7,10,14]tetraazacycloheptadecino[17,16-c]quinoline-9-carboxamide], the EC50 was 153 nM and the Emax worked out at 301%.
For the compound `COc1cccc(CCNC(=O)[C@@H]2CC(=O)N(C)[C@@H](CC(C)C)C(=O)N3CCN(C(C)=O)C[C@@H]3C(=O)N[C@H](Cc3ccccc3)COc3ccc4ccccc4c3C(=O)N2)c1` [Example 750, (4aR,7R,18S,22S)-3-Acetyl-7-benzyl-22-isobutyl-N-(3-methoxyphenethyl)-21-methyl-5,16,20,23-tetraoxo-2,3,4,4a,5,6,7,8,16,17,18,19,20,21,22,23-hexadecahydro-1H-naphtho[1,2-p]pyrazino[2,1-f][1]oxa[4,7,10,14]tetraazacycloheptadecine-18-carboxamide], the EC50 was 784 nM and the maximal effect (Emax) worked out at 267%.
Regarding `COc1cccc(CCNC(=O)[C@@H]2CC(=O)N(C)[C@@H](CC(C)C)C(=O)N3CCN(C(=O)CC(C)C)C[C@@H]3C(=O)N[C@H](Cc3ccccc3)COc3ccc4ccccc4c3C(=O)N2)c1` [Example 751, (4aR,7R,18S,22S)-7-benzyl-22-isobutyl-N-(3-methoxyphenethyl)-21-methyl-3-(3-methylbutanoyl)-5,16,20,23-tetraoxo-2,3,4,4a,5,6,7,8,16,17,18,19,20,21,22,23-hexadecahydro-1H-naphtho[1,2-p]pyrazino[2,1-f][1]oxa[4,7,10,14]tetraazacycloheptadecine-18-carboxamide], the EC50 stood at 217 nM and the Emax stood at 213%.
Turning to `COCCC(=O)N1CCN2C(=O)[C@H](CC(C)C)N(C)C(=O)C[C@@H](C(=O)NCCc3cccc(OC)c3)NC(=O)c3c(ccc4ccccc34)OC[C@@H](Cc3ccccc3)NC(=O)[C@H]2C1` [Example 752, (4aR,7R,18S,22S)-7-benzyl-22-isobutyl-N-(3-methoxyphenethyl)-3-(3-methoxypropanoyl)-21-methyl-5,16,20,23-tetraoxo-2,3,4,4a,5,6,7,8,16,17,18,19,20,21,22,23-hexadecahydro-1H-naphtho[1,2-p]pyrazino[2,1-f][1]oxa[4,7,10,14]tetraazacycloheptadecine-18-carboxamide], the EC50 was found to be 706 nM and the Emax is 200%.
Taken in the same sequence, the figures for `COc1cccc(CCNC(=O)[C@@H]2CC(=O)N(C)[C@@H](CC(C)C)C(=O)N3CCN(C(=O)c4cnccn4)C[C@@H]3C(=O)N[C@H](Cc3ccccc3)COc3ccc4ccccc4c3C(=O)N2)c1` [Example 753, (4aR,7R,18S,22S)-7-benzyl-22-isobutyl-N-(3-methoxyphenethyl)-21-methyl-5,16,20,23-tetraoxo-3-(pyrazine-2-carbonyl)-2,3,4,4a,5,6,7,8,16,17,18,19,20,21,22,23-hexadecahydro-1H-naphtho[1,2-p]pyrazino[2,1-f][1]oxa[4,7,10,14]tetraazacycloheptadecine-18-carboxamide] were 430 nM and 264%.
Take `COC(=O)N1CCN2C(=O)[C@H](CC(C)C)N(C)C(=O)C[C@@H](C(=O)NCCc3cccc(OC)c3)NC(=O)c3c(ccc4ccccc34)OC[C@@H](Cc3ccccc3)NC(=O)[C@H]2C1` [Example 754, Methyl (4aR,7R,18S,22S)-7-benzyl-22-isobutyl-18-((3-methoxyphenethyl)carbamoyl)-21-methyl-5,16,20,23-tetraoxo-1,2,4,4a,5,6,7,8,16,17,18,19,20,21,22,23-hexadecahydro-3H-naphtho[1,2-p]pyrazino[2,1-f][1]oxa[4,7,10,14]tetraazacycloheptadecine-3-carboxylate]: the EC50 was 219 nM and the Emax amounted to 279%.
For `CCOC(=O)N1CCN2C(=O)[C@H](CC(C)C)N(C)C(=O)C[C@@H](C(=O)NCCc3cccc(OC)c3)NC(=O)c3c(ccc4ccccc34)OC[C@@H](Cc3ccccc3)NC(=O)[C@H]2C1` [Example 755, ethyl (4aR,7R,18S,22S)-7-benzyl-22-isobutyl-18-((3-methoxyphenethyl)carbamoyl)-21-methyl-5,16,20,23-tetraoxo-1,2,4,4a,5,6,7,8,16,17,18,19,20,21,22,23-hexadecahydro-3H-naphtho[1,2-p]pyrazino[2,1-f][1]oxa[4,7,10,14]tetraazacycloheptadecine-3-carboxylate], the concentration giving a half-maximal response (EC50) was 168 nM and the Emax was 270%.
Taken in the same sequence, the figures for `COc1cccc(CCNC(=O)[C@@H]2CC(=O)N(C)[C@@H](CC(C)C)C(=O)N3CCN(C(=O)OC4CCOCC4)C[C@@H]3C(=O)N[C@H](Cc3ccccc3)COc3ccc4ccccc4c3C(=O)N2)c1` [Example 756, Tetrahydro-2H-pyran-4-yl (4aR,7R,18S,22S)-7-benzyl-22-isobutyl-18-((3-methoxyphenethyl)carbamoyl)-21-methyl-5,16,20,23-tetraoxo-1,2,4,4a,5,6,7,8,16,17,18,19,20,21,22,23-hexadecahydro-3H-naphtho[1,2-p]pyrazino[2,1-f][1]oxa[4,7,10,14]tetraazacycloheptadecine-3-carboxylate] were 311 nM and 252%.
Taken in the same sequence, the figures for `COc1cccc(CCNC(=O)[C@@H]2CC(=O)N(C)[C@@H](CC(C)C)C(=O)N3CCN([S@](=O)(=NC(=O)OC(C)(C)C)c4ccccc4)C[C@@H]3C(=O)N[C@H](Cc3ccccc3)COc3ccc4ccccc4c3C(=O)N2)c1` [Example 757, tert-Butyl (((4aR,7R,18S,22S)-7-benzyl-22-isobutyl-18-((3-methoxyphenethyl)carbamoyl)-21-methyl-5,16,20,23-tetraoxo-1,2,4,4a,5,6,7,8,16,17,18,19,20,21,22,23-hexadecahydro-3H-naphtho[1,2-p]pyrazino[2,1-f][1]oxa[4,7,10,14]tetraazacycloheptadecin-3-yl)(oxo)(phenyl)-16-sulfaneylidene)carbamate] were 145 nM and 280%.
For the compound `COc1cccc(CCNC(=O)[C@@H]2CC(=O)N(C)[C@@H](CC(C)C)C(=O)N3CCN([S@@](=N)(=O)c4ccccc4)C[C@@H]3C(=O)N[C@H](Cc3ccccc3)COc3ccc4ccccc4c3C(=O)N2)c1` [Example 758, (4aR,7R,18S,22S)-7-Benzyl-22-isobutyl-N-(3-methoxyphenethyl)-21-methyl-5,16,20,23-tetraoxo-3-(phenylsulfonimidoyl)-2,3,4,4a,5,6,7,8,16,17,18,19,20,21,22,23-hexadecahydro-1H-naphtho[1,2-p]pyrazino[2,1-f][1]oxa[4,7,10,14]tetraazacycloheptadecine-18-carboxamide], the EC50 was determined as 334 nM and the Emax is 266%.
For the compound `CC(C)C[C@H]1C(=O)N2CCOC[C@@H]2C(=O)N[C@H](Cc2ccccc2)COc2ccc3ccccc3c2C(=O)N[C@H](C(=O)NCCc2cccc(C#N)c2)CC(=O)N1C` [Example 759, (4aR,7R,18S,22S)-7-Benzyl-N-(3-cyanophenethyl)-22-isobutyl-21-methyl-5,16,20,23-tetraoxo-1,2,4,4a,5,6,7,8,16,17,18,19,20,21,22,23-hexadecahydronaphtho[1,2-p][1,4]oxazino[3,4-f][1]oxa[4,7,10,14]tetraazacycloheptadecine-18-carboxamide], the EC50 was found to be 296 nM and the Emax amounted to 131%.
With `COc1cccc(CCNC(=O)[C@@H]2CC(=O)N(C)[C@@H](CC(C)C)C(=O)N3CCCC[C@@H]3C(=O)N[C@H](Cc3ccccc3)COc3c[n+]([O-])c4ccccc4c3C(=O)N2)c1` [Example 760, (9S,13S,19aR,22R)-22-Benzyl-13-isobutyl-9-((3-methoxyphenethyl)carbamoyl)-12-methyl-7,11,14,20-tetraoxo-7,8,9,10,11,12,13,14,17,18,19,19a,20,21,22,23-hexadecahydro-16H-pyrido[2′,1′:6,7][1]oxa[4,7,10,14]tetraazacycloheptadecino[17,16-c]quinoline 2-oxide], the EC50 came to 723 nM and the Emax was found to be 333%.
In the case of `Cc1nc2ccc3c(c2o1)C(=O)N[C@H](C(=O)NCCc1cc(-c2ccccc2)no1)CC(=O)N(C)[C@@H](CC(C)C)C(=O)N(C)C1(CC1)C(=O)N[C@H](Cc1ccccc1)CO3` [Example 761, (8′R,14'S,18'S)-8′-Benzyl-14′-isobutyl-2′,12′,15′-trimethyl-10′,13′,16′,20′-tetraoxo-N-(2-(3-phenylisoxazol-5-yl)ethyl)-7′,8′,9′,10′,13′,14′,15′,16′,17′,18′,19′,20′-dodecahydro-12′H-spiro[cyclopropane-1,11′-oxazolo[4′,5′:5,6]benzo[1,2-p][1]oxa[4,7,10,14]tetraazacycloheptadecine]-18′-carboxamide], the EC50 was 676 nM and the Emax was 202%.
